Assay results: BindingDB's records for doi:10.1074/jbc.M113.457119 (Institut National De Recherche Agronomique (Inra)-Vetagro …, 2013)
Positions count from the first letter of the chain named.

What was measured:
Test in all cases: VKOR Activity Assay
Conditions in all cases: pH 7.4; 37 °C
[1] = target: T1, Vitamin K epoxide reductase complex subunit 1-like protein 1 (Rattus norvegicus, UniProt Q6TEK3)
T1 sequence (Q6TEK3 whole entry): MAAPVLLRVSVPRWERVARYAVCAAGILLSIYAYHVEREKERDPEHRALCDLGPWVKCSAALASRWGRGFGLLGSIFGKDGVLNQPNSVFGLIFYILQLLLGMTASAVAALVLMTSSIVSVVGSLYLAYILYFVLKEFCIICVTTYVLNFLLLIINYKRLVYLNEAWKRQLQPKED
Method: (§1) Briefly, standard reactions were performed in 200 mM Hepes buffer, pH 7.4, containing 150 mM KCl, 1 mM dithiothreitol, 0.25 to 2 g liter-1 of total proteins containing membrane VKORC1. The reaction was started by the addition of vit K1>O solution in 1% Triton X-100 and incubated at 37 °C for 30 min. […] After incubation at 37 °C for 30 min, the reaction was stopped by adding 4 ml of iced 1:1 isopropyl alcohol/hexane solution. After centrifugation at 5000 x g for 10 min, the hexane layer was removed and driedunder nitrogen. The dry residue was immediately dissolved in 0.2 ml of isopropyl alcohol, and the reaction product was analyzed by liquid chromatography-mass spectrometry.

[2] = target: T2, Vitamin K epoxide reductase complex subunit 1 (Rattus norvegicus, UniProt Q6TEK4)
T2 sequence (Q6TEK4 whole entry): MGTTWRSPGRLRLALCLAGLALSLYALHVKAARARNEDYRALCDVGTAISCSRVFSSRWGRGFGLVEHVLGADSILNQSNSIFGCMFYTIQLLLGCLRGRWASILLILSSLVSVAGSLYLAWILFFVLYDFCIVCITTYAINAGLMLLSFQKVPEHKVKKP
Method: as §1

[3] = target: T3, Vitamin K epoxide reductase complex subunit 1-like protein 1 (Homo sapiens, UniProt Q8N0U8)
T3 sequence (Q8N0U8 whole entry): T1 sequence (Q6TEK3 whole entry) with V112I, V119M, V143I, T144V, E175Q
Method: as §1

CC(=O)C[C@H](c1ccccc1)c1c(O)c2ccccc2oc1=O [2-hydroxy-3-(3-oxo-1-phenylbutyl)-4H-chromen-4-one]
Ki [1]: 32.6 µM
Ki [2]: 0.6 µM
Ki [3]: 52 µM
